Biological target: human CSNK1A1 (Homo sapiens (Human), UniProt P48729)
Assay: CSNK1A1 Assay 2 (ADP-Glo, 1 μM ATP)
Format: biochemical
Conditions: median, Table 2, read-out: CSNK1A1 Assay 2 IC50 [mol/l] (median)
Method: CSNK1A1-inhibitory activity of compounds of the present invention in presence of 1 μM adenosine-tri-phosphate (ATP) was quantified employing the CSNK1A1 assay as described in the following paragraphs. In essence, the enzyme activity is measured by quantification of the adenosine-di-phosphate (ADP), which is generated as a co-product of the enzyme reaction, via the “ADP-Glo™ Kinase Assay” kit from the company Promega. This detection system works as follows: In a first step the ATP not consumed in the kinase reaction is quantitatively converted to cAMP employing an adenylate cyclase (“ADP-Glo-reagent”), then the adenylate cyclase is stopped and the ADP generated in the kinase reaction converted to ATP which generates in a luciferase-based reaction a glow-luminescence signal (“Kinase Detection Reagent”).
Recombinant fusion protein of N-terminal Glutathion-S-Transferase (GST) and full-length human CSNK1A1, expressed by baculovirus infected insect cells and purified via Glutathion affinity chromatography, was purchased from Life Technologies (product no. PV4174) and used as enzyme. As substrate for the kinase reaction the biotinylated peptide biotin-Ahx-KRRRAL-pS-VASLPGL (C-terminus in amide form) was used which can be purchased e.g. from the company Biosyntan (Berlin-Buch, Germany).
For the assay 50 nl of a 100 fold concentrated solution of the test compound in DMSO was pipetted into a white 1536-well microtiter plate (Greiner Bio-One, Frickenhausen, Germany), 2 μL of a solution of CSNK1A1 in aqueous assay buffer [50 mM HEPES pH 7.5, 10% (v/v) glycerol, 10 mM MgCl2, 50 mM NaCl, 1 mM dithiothreitol, 0.01% (w/v) bovine serum albumin, 0.01% (v/v) Triton X-100] were added and the mixture was incubated for 15 min at 22° C. to allow pre-binding of the test compounds to the enzyme before the start of the kinase reaction. Then the kinase reaction was started by the addition of 3 μL of a solution of ATP (1.67 μM=>final conc. in the 5 μL assay volume is 1 μM) and peptide substrate (50 μM=>final conc. in the 5 μL assay volume is 30 μM) in assay buffer and the resulting mixture was incubated for a reaction time of 30 min at 22° C. The concentration of CSNK1A1 was adjusted depending of the activity of the enzyme lot and was chosen appropriate to have the assay in the linear range, a typical concentrations are about 0.0375 ng/μL. The reaction was stopped by the addition of 2.5 μL of “ADP-Glo-reagent” (1:1.5 fold diluted with water) and the resulting mixture was incubated at 22° C. for 1 h to convert the ATP not consumed in the kinase reaction completely […]. Subsequently 2.5 μL of the “kinase detection reagent” (1.2 fold more concentrated than recommended by the producer) were added, the resulting mixture was incubated at 22° C. for 1 h and then the luminescence measured with a suitable measurement instrument (e.g. Viewlux™ from Perkin-Elmer). The amount of emitted light was taken as a measure for the amount of ADP generated and thereby for the activity of the CSNK1A1.
The data were normalised (enzyme reaction without inhibitor=0% inhibition, all other assay components but no enzyme=100% inhibition).

human CSNK1A1, sequence (P48729 whole entry): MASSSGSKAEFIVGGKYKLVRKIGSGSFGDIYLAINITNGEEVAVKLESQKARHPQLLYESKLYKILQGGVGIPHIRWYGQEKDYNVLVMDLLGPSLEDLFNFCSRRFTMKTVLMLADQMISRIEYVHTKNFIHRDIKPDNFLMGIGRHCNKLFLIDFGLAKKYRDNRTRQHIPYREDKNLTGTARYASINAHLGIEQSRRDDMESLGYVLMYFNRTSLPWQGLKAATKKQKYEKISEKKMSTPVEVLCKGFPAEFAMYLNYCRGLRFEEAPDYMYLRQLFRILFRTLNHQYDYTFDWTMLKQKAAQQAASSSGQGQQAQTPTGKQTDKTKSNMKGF

SMILES | IC50 [nM]
CN1CC(CC(F)(F)F)c2[nH]c(-c3ccnc(NC(=O)Cc4ccc(F)cc4)c3)c(Nc3cscn3)c2C1=O (racemic) [Example 46, 2-(4-fluorophenyl)-N-{4-[(7RS)-5-methyl-4-oxo-3-(1,3-thiazol-4-ylamino)-7-(2,2,2-trifluoroethyl)-4,5,6,7-tetrahydro-1H-pyrrolo[3,2-c]pyridin-2-yl]pyridin-2-yl}acetamide] | 23
O=C1N[C@@H]2CCC[C@@H]2c2[nH]c(-c3ccnc(NC(=O)C(CC(F)F)c4ccc(F)cc4)c3)c(Nc3ccccc3)c21 (single isomer, unassigned; (+)) [Example 22, (+)-(2R or S)—N-{4-[cis-3-anilino-4-oxo-1,4,5,5a,6,7,8,8a-octahydrocyclopenta[b]pyrrolo[2,3-d]pyridin-2-yl]pyridin-2-yl}-4,4-difluoro-2-(4-fluorophenyl)butanamide] | 5.4
CN1CC(CC(F)(F)F)c2[nH]c(-c3ccnc(NC(=O)C(CC(F)F)c4ccc(F)cc4)c3)c(Nc3cscn3)c2C1=O (racemic) [Example 52, (2RS)-4,4-difluoro-2-(4-fluorophenyl)-N-{4-[(7RS)-5-methyl-4-oxo-3-[(1,3-thiazol-4-yl)amino]-7-(2,2,2-trifluoroethyl)-4,5,6,7-tetrahydro-1H-pyrrolo[3,2-c]pyridin-2-yl]pyridin-2-yl}butanamide] | 7.9
CN1CC(CC2CC2)c2[nH]c(-c3ccnc(NC(=O)Cc4ccc(F)cc4)c3)c(Nc3cscn3)c2C1=O (single isomer, unassigned) [Example 50, N-{4-[(7R or S)-7-(cyclopropylmethyl)-5-methyl-4-oxo-3-(1,3-thiazol-4-ylamino)-4,5,6,7-tetrahydro-1H-pyrrolo[3,2-c]pyridin-2-yl]pyridin-2-yl}-2-(4-fluorophenyl)acetamide] | 5.1
Cc1cc2[nH]c(-c3ccnc(NC(=O)C(CC(F)F)c4ccc(F)cc4)c3)c(Nc3ccccc3F)c2c(=O)n1C (racemic) [Example 31, 4,4-difluoro-N-{4-[3-(2-fluoroanilino)-5,6-dimethyl-4-oxo-4,5-dihydro-1H-pyrrolo[3,2-c]pyridin-2-yl]pyridin-2-yl}-2-(4-fluorophenyl)butanamide] | 31
CN1CC(CC(F)F)c2[nH]c(-c3ccnc(NC(=O)Cc4ccc(F)cc4)c3)c(Nc3ccccc3)c2C1=O (single isomer, unassigned) [Example 43, N-{4-[3-anilino-7-(2,2-difluoroethyl)-5-methyl-4-oxo-4,5,6,7-tetrahydro-1H-pyrrolo[3,2-c]pyridin-2-yl]pyridin-2-yl}-2-(4-fluorophenyl)acetamide] | 2.8
CN1CC(CC(F)(F)F)c2[nH]c(-c3ccnc(NC(=O)Cc4ccc(F)cc4)c3)c(Nc3cscn3)c2C1=O (single isomer, unassigned) [Example 47, 2-(4-fluorophenyl)-N-{4-[(7R or S)-5-methyl-4-oxo-3-(1,3-thiazol-4-ylamino)-7-(2,2,2-trifluoroethyl)-4,5,6,7-tetrahydro-1H-pyrrolo[3,2-c]pyridin-2-yl]pyridin-2-yl}acetamide] | 3.4
CN1CC(CC(F)(F)F)c2[nH]c(-c3ccnc(NC(=O)C(CC(F)F)c4ccc(F)cc4)c3)c(Nc3ccccc3)c2C1=O (stereo not shown) [Example 17, N-{4-[3-anilino-5-methyl-4-oxo-7-(2,2,2-trifluoroethyl)-4,5,6,7-tetrahydro-1H-pyrrolo[3,2-c]pyridin-2-yl]pyridin-2-yl}-4,4-difluoro-2-(4-fluorophenyl)butanamide] | 17
Cn1ccc2[nH]c(-c3ccnc(NC(=O)C(CC(F)F)c4ccc(F)cc4)c3)c(Nc3ccccc3)c2c1=O (single isomer, unassigned) [Example 30, N-[4-(3-anilino-5-methyl-4-oxo-4,5-dihydro-1H-pyrrolo[3,2-c]pyridin-2-yl)pyridin-2-yl]-4,4-difluoro-2-(4-fluorophenyl)butanamide] | 3.7
Cn1ccc2[nH]c(-c3ccnc(NC(=O)C(CC(F)F)c4ccc(F)cc4)c3)c(Nc3ccccc3)c2c1=O (single isomer, unassigned) [Example 29, N-[4-(3-anilino-5-methyl-4-oxo-4,5-dihydro-1H-pyrrolo[3,2-c]pyridin-2-yl)pyridin-2-yl]-4,4-difluoro-2-(4-fluorophenyl)butanamide] | 50
Cc1cn(C)c(=O)c2c(Nc3ccccc3)c(-c3ccnc(NC(=O)C(CC(F)F)c4ccc(F)cc4)c3)[nH]c12 (racemic) [Example 11, N-[4-(3-anilino-5,7-dimethyl-4-oxo-4,5-dihydro-1H-pyrrolo[3,2-c]pyridin-2-yl)pyridin-2-yl]-4,4-difluoro-2-(4-fluorophenyl)butanamide] | 19
Cc1cn(C)c(=O)c2c(Nc3ccccc3)c(-c3ccnc(NC(=O)C(CC(F)F)c4ccc(F)cc4)c3)[nH]c12 (single isomer, unassigned) [Example 13, N-[4-(3-anilino-5,7-dimethyl-4-oxo-4,5-dihydro-1H-pyrrolo[3,2-c]pyridin-2-yl)pyridin-2-yl]-4,4-difluoro-2-(4-fluorophenyl)butanamide] | 19
CCC1CNC(=O)c2c1[nH]c(-c1ccnc(NC(=O)Cc3ccc(F)cc3)c1)c2Nc1ccccc1 (single isomer, unassigned) [Example 3, N-{4-[3-anilino-7-ethyl-4-oxo-4,5,6,7-tetrahydro-1H-pyrrolo[3,2-c]pyridin-2-yl]pyridin-2-yl}-2-(4-fluorophenyl)acetamide] | 3.8
CC1CN(C)C(=O)c2c1[nH]c(-c1ccnc(NC(=O)Cc3ccc(F)cc3)c1)c2Nc1ccccc1 (racemic) [Example 6, N-{4-[3-anilino-5,7-dimethyl-4-oxo-4,5,6,7-tetrahydro-1H-pyrrolo[3,2-c]pyridin-2-yl]pyridin-2-yl}-2-(4-fluorophenyl)acetamide] | 2.6
CN1CC(CC2CC2)c2[nH]c(-c3ccnc(NC(=O)Cc4ccc(F)cc4)c3)c(Nc3ccccc3)c2C1=O (single isomer, unassigned) [Example 20, N-{4-[3-anilino-7-(cyclopropylmethyl)-5-methyl-4-oxo-4,5,6,7-tetrahydro-1H-pyrrolo[3,2-c]pyridin-2-yl]pyridin-2-yl}-2-(4-fluorophenyl)acetamide] | 17
CN1CC(CC(F)(F)F)c2[nH]c(-c3ccnc(NC(=O)C(CC(F)F)c4ccc(F)cc4)c3)c(Nc3cscn3)c2C1=O (single isomer, unassigned) [Example 56, (2R or S)-4,4-difluoro-2-(4-fluorophenyl)-N-{4-[(7R or S)-5-methyl-4-oxo-3-[(1,3-thiazol-4-yl)amino]-7-(2,2,2-trifluoroethyl)-4,5,6,7-tetrahydro-1H-pyrrolo[3,2-c]pyridin-2-yl]pyridin-2-yl}butanamide] | 7.7
CN1CC(CC(F)(F)F)c2[nH]c(-c3ccnc(NC(=O)C(CC(F)F)c4ccc(F)cc4)c3)c(Nc3cscn3)c2C1=O (single isomer, unassigned) [Example 54, (2R or S)-4,4-difluoro-2-(4-fluorophenyl)-N-{4-[(7R or S)-5-methyl-4-oxo-3-[(1,3-thiazol-4-yl)amino]-7-(2,2,2-trifluoroethyl)-4,5,6,7-tetrahydro-1H-pyrrolo[3,2-c]pyridin-2-yl]pyridin-2-yl}butanamide] | 3
O=C1N[C@@H]2CCC[C@@H]2c2[nH]c(-c3ccnc(NC(=O)C(CC(F)F)c4ccc(F)cc4)c3)c(Nc3ccccc3)c21 (single isomer, unassigned; (+)) [Example 25, (+)-(2R or S)—N-{4-[cis-3-anilino-4-oxo-1,4,5,5a,6,7,8,8a-octahydrocyclopenta[b]pyrrolo[2,3-d]pyridin-2-yl]pyridin-2-yl}-4,4-difluoro-2-(4-fluorophenyl)butanamide] | 2.3
CN1CC(CC(F)(F)F)c2[nH]c(-c3ccnc(NC(=O)Cc4ccc(F)cc4)c3)c(Nc3ccccc3)c2C1=O (single isomer, unassigned) [Example 15, N-{4-[3-anilino-5-methyl-4-oxo-7-(2,2,2-trifluoroethyl)-4,5,6,7-tetrahydro-1H-pyrrolo[3,2-c]pyridin-2-yl]pyridin-2-yl}-2-(4-fluorophenyl)acetamide] | 9.4
